Here are results for twelve molecules from ChEMBL document CHEMBL1143518, “Binding of isotryptamines and indenes at h5-HT6 serotonin receptors” (Bioorg Med Chem Lett, 2005).

A word on the Ki: it is a measure of affinity in units of concentration, obtained from inhibition or displacement. Lower therefore signals higher affinity.

This assay has as its target 5-hydroxytryptamine receptor 6 (Homo sapiens, UniProt P50406). Briefly: Binding affinity against human 5-Hydroxytryptamine 6 receptor expressed in HEK293 cells using [3H]LSD done for 90 minutes at pH 7.4 at room temperature. In kind it is cell-based.

Chain of 5-hydroxytryptamine receptor 6 (P50406 whole entry): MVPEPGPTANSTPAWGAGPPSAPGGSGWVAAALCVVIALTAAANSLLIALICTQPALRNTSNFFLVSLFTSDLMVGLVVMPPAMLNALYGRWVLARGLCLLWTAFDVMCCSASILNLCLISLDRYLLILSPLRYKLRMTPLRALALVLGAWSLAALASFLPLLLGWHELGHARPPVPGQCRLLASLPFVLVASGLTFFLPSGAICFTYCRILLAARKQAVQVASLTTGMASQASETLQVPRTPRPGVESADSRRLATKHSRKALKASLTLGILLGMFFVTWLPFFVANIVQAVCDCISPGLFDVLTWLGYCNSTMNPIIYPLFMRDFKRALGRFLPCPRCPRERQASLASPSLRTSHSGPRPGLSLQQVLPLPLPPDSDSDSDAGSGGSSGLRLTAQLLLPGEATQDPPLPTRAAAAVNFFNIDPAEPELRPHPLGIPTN

With `Nc1ccc(SC2CCc3ccccc32)cc1` (configuration not stated), the Ki came to 4200 nM.

The molecule `Nc1ccc(S(=O)(=O)C2CCc3ccccc32)cc1` (configuration not stated) showed a Ki of 740 nM.

Turning to `Nc1ccc(/C=C2\C=Cc3ccccc32)cc1`, the Ki was found to be 640 nM.

Turning to `Nc1ccc(CC2C=Cc3ccccc32)cc1` (configuration not stated), the Ki came to 4470 nM.

For `CN(C)CCn1cc(Cc2ccc(N)cc2)c2ccccc21`, the inhibitory constant (Ki) stood at 50 nM.

Molecule `CNCCC1=CC(Cc2ccccc2)c2ccccc21` (configuration not stated) had a Ki of 3 nM.

`CNCCC1=CC(CCc2ccccc2)c2ccccc21` (configuration not stated) gave a Ki of 100 nM.

On to `Nc1ccc(CC2CCc3ccccc32)cc1` (configuration not stated), for which the Ki came to 6100 nM.

Consider `Nc1ccc(Cc2c[nH]c3ccccc23)cc1`, for which the Ki came out at 2530 nM.

Take `Nc1ccc(CC2=CCc3ccccc32)cc1`: the Ki was 11800 nM.

`CN(C)CCc1cn(CCc2ccccc2)c2ccccc12` displayed a Ki of 12 nM.

`CN(C)CCC1=C/C(=C\c2ccccc2)c2ccccc21` registered a Ki of 57 nM.
